In patent US20250353873A1, “COMPOUNDS AND METHODS FOR MODULATING APOE EXPRESSION” (Ionis Pharmaceuticals, Inc., priority 2024, published 2025):
pIC50: −log10 of the molar value. Strand notation (5' to 3'): a small letter for the sugar, then the base; units joined by * are phosphorothioate-linked, units joined directly phosphodiester-linked; [ ] holds rarer units or linkages, { } end groups; capitals alone tell only the bases. [ms] = mesyl phosphoramidate linkage; e = 2'-O-(2-methoxyethyl) (MOE); [5mC] = 5-methylcytosine; d = 2'-deoxy (DNA)

Tests used:
human APOE RNA [1] = experiment: Activity in APOE 1549 knock-in mice, single ICV bolus, 4 weeks (Example 8); assay type: in vivo; conditions: n = 2, single ICV bolus of 300 μg, four weeks post treatment, Table 18
Experimental: Modified oligonucleotides described above were tested in the 1549 APOE knock-in mouse model described above.
APOE knock-in mice were divided into groups of either 2 or 6 mice each as described in the tables below. Each mouse received a single intracerebroventricular (ICV) bolus of 300 μg of modified oligonucleotide. A group of either 3 or 6 mice received a single ICV bolus with PBS as a negative control.
Four weeks post treatment, mice were sacrificed and RNA was extracted from cortical brain tissue and spinal cord for quantitative real-time RT-PCR analysis of RNA expression of APOE using primer probe set RTS3073 (described herein above). APOE RNA levels were normalized to mouse Ppia. Mouse Ppia was amplified using primer probe set m_cyclo24 (described herein above). Results are presented as percent human APOE RNA relative to the amount of human APOE RNA in PBS treated animals, (% control). Each experiment is identified in separate tables below.

human APOE RNA [2] = experiment: Activity in APOE C57BL/6NTac-Apoeem7250 knock-in mice, single ICV bolus, 20 weeks (Example 13); assay type: in vivo; conditions: single ICV bolus 300 μg, 20 weeks post treatment, normalized to mouse Ppia
Procedure, shortened: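 Knock-in mice (n=4) given a single ICV bolus of 300 μg oligonucleotide, PBS as control. After 20 weeks, human APOE RNA in cortex and spinal cord measured by RT-qPCR, normalized to mouse Ppia, expressed as % of PBS-treated animals.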

human APOE RNA [3] = experiment: Dose-dependent inhibition of human APOE RNA in HepG2 cells, electroporation, 24 hours (Example 6); assay type: cell-based
Procedure, shortened: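 HepG2 cells, 50,000 per well, electroporated with various oligonucleotide concentrations. APOE RNA measured with primer probe set RTS3073, normalized to GAPDH (RTS104), expressed as % of untreated control; IC50 then calculated.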

human APOE RNA [4] = experiment: Activity in APOE 1549 knock-in mice, single ICV bolus, 2 weeks (Example 7); assay type: in vivo; conditions: single ICV bolus of 300 μg, two weeks post treatment
Experimental: Modified oligonucleotides described above were tested in APOE knock-in mice.
APOE knock-in mice (model 41549) were obtained from Taconic Biosciences. APOE knock-in mice were divided into groups of 2 mice each. Each mouse received a single intracerebroventricular (ICV) bolus of 300 μg of modified oligonucleotide. A group of 4 mice received a single ICV bolus with PBS as a negative control.
Two weeks post treatment, mice were sacrificed and RNA was extracted from cortical brain tissue and spinal cord for quantitative real-time RT-PCR analysis of RNA expression of APOE using primer probe set RTS3073 (described herein above). APOE RNA levels were normalized to mouse Ppia. Mouse Ppia was amplified using primer probe set m_cyclo24 (forward sequence TCGCCGCTTGCTGCA, designated herein as SEQ ID NO: 16; reverse sequence ATCGGCCGTGATGTCGA, designated herein as SEQ ID NO: 17; probe sequence […], designated herein as SEQ ID NO: 18). Results are presented as percent human APOE RNA relative to the amount of human APOE RNA in PBS treated animals, (% control). Each experiment is identified in separate tables below.

human APOE RNA [5] = experiment: Activity in APOE C57BL/6NTac-Apoeem7250 knock-in mice, single ICV bolus, 16 weeks (Example 12); assay type: in vivo; conditions: single ICV bolus 300 μg, 16 weeks post treatment, normalized to mouse Ppia
Procedure, shortened: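 Knock-in mice (3-4 per group) received one ICV bolus of 300 μg oligonucleotide, PBS as control. After 16 weeks, human APOE RNA in cortex and spinal cord measured by RT-qPCR, normalized to mouse Ppia, and reported as % of PBS control.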

human APOE RNA [6] = experiment: Duration of action study in APOE C57BL/6NTac-Apoeem7250 knock-in mice (Example 16); assay type: in vivo; conditions: 300 μg ICV
Procedure, shortened: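 Knock-in mice (2-4 per group) received a single ICV bolus of 300 μg oligonucleotide or PBS. At various timepoints, cortex and spinal cord human APOE RNA was measured by RT-qPCR (RTS3073), normalized to mouse Ppia and expressed as % of PBS control.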

human APOE RNA [7] = experiment: Activity in APOE C57BL/6NTac-Apoeem7250 knock-in mice, single ICV bolus, 8 weeks (Example 11); assay type: in vivo; conditions: single ICV bolus 300 μg, 8 weeks post treatment, normalized to mouse Ppia
Procedure, shortened: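 Human APOE knock-in C57BL/6NTac mice given one ICV bolus of 300 μg oligonucleotide; PBS-dosed group as control. At 8 weeks, cortex and spinal cord RNA measured by qRT-PCR (human probe RTS3073), normalized to mouse Ppia, expressed as % of PBS control.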

## 1736526: 6-10-4 MOE gapmer CTTGGTGAATCTTTATTAAA, linkages ssoooszzsssssssssss (e[5mC]*eT*eTeGeGeT*dG[ms]dA[ms]dA*dT*d[5mC]*dT*dT*dT*dA*dT*eT*eA*eA*eA) [compound 1736526]
Human APOE RNA [1]; cortex
  APOE RNA (% control) Cortex: 35 % control
Human APOE RNA [1]; spinal cord
  APOE RNA (% control) Spinal Cord: 42 % control
Human APOE RNA [2]; cortex
  APOE RNA (% control) Cortex: 67 % control
Human APOE RNA [2]; spinal cord
  APOE RNA (% control) Spinal Cord: 68 % control
Human APOE RNA [3]
  pIC50: 5.94
Human APOE RNA [3]; 5 nM
  APOE RNA (% UTC): 89 % UTC
Human APOE RNA [3]; 13 nM
  APOE RNA (% UTC): 114 % UTC
Human APOE RNA [3]; 33 nM
  APOE RNA (% UTC): 100 % UTC
Human APOE RNA [3]; 82 nM
  APOE RNA (% UTC): 85 % UTC
Human APOE RNA [3]; 205 nM
  APOE RNA (% UTC): 71 % UTC
Human APOE RNA [3]; 512 nM
  APOE RNA (% UTC): 51 % UTC
Human APOE RNA [3]; 1,280 nM
  APOE RNA (% UTC): 58 % UTC
Human APOE RNA [3]; 3,200 nM
  APOE RNA (% UTC): 28 % UTC
Human APOE RNA [3]; 8,000 nM
  APOE RNA (% UTC): 25 % UTC
Human APOE RNA [3]; 20,000 nM
  APOE RNA (% UTC): 18 % UTC

## 1652902: 6-10-4 MOE gapmer CTTGGTGAATCTTTATTAAA, linkages sooooossssssssssoss (antisense e[5mC]*eTeTeGeGeTdG*dA*dA*dT*d[5mC]*dT*dT*dT*dA*dT*eTeA*eA*eA) [compound 1652902]
Human APOE RNA [4]; Table 17
  APOE RNA (% control) Cortex: 31 % control
  APOE RNA (% control) Spinal Cord: 171 % control
Human APOE RNA [5]; cortex
  APOE RNA (% control) Cortex: 105 % control
Human APOE RNA [5]; spinal cord
  APOE RNA (% control) Spinal Cord: 60 % control
Human APOE RNA [6]; 14 days post-dose
  APOE RNA (% control) Cortex: 43 % control
  APOE RNA (% control) Spinal Cord: 27 % control
Human APOE RNA [6]; 112 days post-dose
  APOE RNA (% control) Cortex: 75 % control
  APOE RNA (% control) Spinal Cord: 32 % control
Human APOE RNA [7]; cortex
  APOE RNA (% control) Cortex: 44 % control
Human APOE RNA [7]; spinal cord
  APOE RNA (% control) Spinal Cord: 12 % control
Human APOE RNA [3]
  pIC50: 7.15
Human APOE RNA [3]; 5 nM
  APOE RNA (% UTC): 88 % UTC
Human APOE RNA [3]; 13 nM
  APOE RNA (% UTC): 94 % UTC
Human APOE RNA [3]; 33 nM
  APOE RNA (% UTC): 54 % UTC
Human APOE RNA [3]; 82 nM
  APOE RNA (% UTC): 44 % UTC
Human APOE RNA [3]; 205 nM
  APOE RNA (% UTC): 26 % UTC
Human APOE RNA [3]; 512 nM
  APOE RNA (% UTC): 19 % UTC
Human APOE RNA [3]; 1,280 nM
  APOE RNA (% UTC): 10 % UTC
Human APOE RNA [3]; 3,200 nM
  APOE RNA (% UTC): 4 % UTC
Human APOE RNA [3]; 8,000 nM
  APOE RNA (% UTC): 3 % UTC
Human APOE RNA [3]; 20,000 nM
  APOE RNA (% UTC): 2 % UTC

## 1601944: 6-10-4 MOE gapmer CTGGTCTTCTCTTATCTCCC, linkages sooooossssssssssoss (antisense e[5mC]*eTeGeGeTe[5mC]dT*dT*d[5mC]*dT*d[5mC]*dT*dT*dA*dT*d[5mC]*eTe[5mC]*e[5mC]*e[5mC]) [compound 1601944]
Human APOE RNA [4]; Table 16
  APOE RNA (% control) Cortex: 109 % control
  APOE RNA (% control) Spinal Cord: 95 % control

## 1601955: 6-10-4 MOE gapmer GCTAATTCAGTCCTCATTTT, linkages sooooossssssssssoss (antisense eG*e[5mC]eTeAeAeTdT*d[5mC]*dA*dG*dT*d[5mC]*d[5mC]*dT*d[5mC]*dA*eTeT*eT*eT) [compound 1601955]
Human APOE RNA [4]; Table 16
  APOE RNA (% control) Cortex: 98 % control
  APOE RNA (% control) Spinal Cord: 111 % control

## 1601948: 6-10-4 MOE gapmer GTTCAAATTCCATCCCCCCA, linkages sooooossssssssssoss (antisense eG*eTeTe[5mC]eAeAdA*dT*dT*d[5mC]*d[5mC]*dA*dT*d[5mC]*d[5mC]*d[5mC]*e[5mC]e[5mC]*e[5mC]*eA) [compound 1601948]
Human APOE RNA [4]; Table 16
  APOE RNA (% control) Cortex: 112 % control
  APOE RNA (% control) Spinal Cord: 105 % control
